Source: US20180243274A1, “ANTIBACTERIAL COMPOSITIONS” (WOCKHARDT LIMITED, priority 2013, published 2018)

Assays:
[1] = system: E. coli NCTC 13353 producing CTX-M15 and OXA 1 beta-lactamase enzymes; test: Time kill study against E. coli NCTC 13353; assay type: cell-based; conditions: for effect on bacterial counts when used alone: throughout the duration of the study
Protocol: (§1) The synergistic killing effect of the combinations according to invention was studied by performing time kill studies. In a typical time kill study, the freshly grown cultures were diluted to the required cell density (initial starting inoculum) in Cation adjusted Muller Hinton broth medium (BD, USA). The antibacterial agents (either alone or in combination) at the required concentrations were added into the culture-containing medium. The samples were incubated under shaking condition (120 rpm) at 37° C. Enumeration of viable bacterial count was done every 2 hour by diluting in normal saline and plating on to the Tryptic Soya Agar plates (BD, USA). The plates were incubated for 24 hours to arrive at the viable bacterial count. The results are expressed in terms of Log 10 CFU per ml. In general, the decrease of 1 Log 10 CFU/ml corresponds to 90% killing of bacteria. Similarly, 2 Log 10 CFU/ml reductions indicates to 99% killing of bacteria and 3 Log 10 CFU/ml reductions is equal to 99.9% killing of bacteria.
E. coli NCTC 13353 produces resistant CTX-M15 and OXA 1 beta-lactamase enzymes.

[2] = system: clinical isolate of E. coli M50 producing CMY 6, DHA—1/2 beta-lactamase enzymes; test: Time kill study against clinical isolate E. coli M50; assay type: cell-based; conditions: for effect on bacterial counts when used alone: throughout the duration of the study
Protocol: as §1
The results on antibacterial activity of the antibacterial agent selected from cefixime, cefpodoxime, ceftibuten or cefuroxime alone and in combination with a compound of Formula (I) against E. coli M50 are given in Table 2. E. coli M50 produces resistant CMY 6, DHA-½ beta-lactamase enzymes.

## COCC1=C(C(=O)O)N2C(=O)[C@@H](NC(=O)/C(=N\OC)c3csc(N)n3)[C@H]2SC1 [Cefpodoxime, cefpodoxime]
[1]; agent alone 1 mcg/ml
  Bacterial count (Log10 CFU/ml) 0 hours: 7.23 Log10 CFU/ml
  Bacterial count (Log10 CFU/ml) 2 hours: 8.17 Log10 CFU/ml
  Bacterial count (Log10 CFU/ml) 4 hours: 8.74 Log10 CFU/ml
  Bacterial count (Log10 CFU/ml) 6 hours: 8.90 Log10 CFU/ml
  Bacterial count (Log10 CFU/ml) 24 hours: 9.06 Log10 CFU/ml
[2]; agent alone 4 mcg/ml
  Bacterial count (Log10 CFU/ml) 0 hour: 7.77 Log10 CFU/ml
  Bacterial count (Log10 CFU/ml) 2 hours: 8.60 Log10 CFU/ml
  Bacterial count (Log10 CFU/ml) 4 hours: 9.04 Log10 CFU/ml
  Bacterial count (Log10 CFU/ml) 6 hours: 9.16 Log10 CFU/ml
  Bacterial count (Log10 CFU/ml) 8 hours: 9.19 Log10 CFU/ml

## C[C@@H](O)[C@H]1C(=O)N2C(C(=O)O)=C(SCCN=CN)C[C@H]12 [Imipenem]
[1]; agent alone 1 mcg/ml
  Bacterial count (Log10 CFU/ml) 0 hours: 7.23 Log10 CFU/ml
  Bacterial count (Log10 CFU/ml) 2 hours: 4.95 Log10 CFU/ml
  Bacterial count (Log10 CFU/ml) 4 hours: 4.47 Log10 CFU/ml
  Bacterial count (Log10 CFU/ml) 6 hours: 4.39 Log10 CFU/ml
  Bacterial count (Log10 CFU/ml) 24 hours: 7.34 Log10 CFU/ml
[2]; alone 1 mcg/ml
  Bacterial count (Log10 CFU/ml) 0 hour: 7.77 Log10 CFU/ml
  Bacterial count (Log10 CFU/ml) 2 hours: 5.60 Log10 CFU/ml
  Bacterial count (Log10 CFU/ml) 4 hours: 7.47 Log10 CFU/ml
  Bacterial count (Log10 CFU/ml) 6 hours: 8.07 Log10 CFU/ml
  Bacterial count (Log10 CFU/ml) 8 hours: 8.47 Log10 CFU/ml

## CO/N=C(\C(=O)N[C@@H]1C(=O)N2C(C(=O)O)=C(COC(N)=O)CS[C@H]12)c1ccco1 [Cefuroxime, cefuroxime]
[1]; agent alone 1 mcg/ml
  Bacterial count (Log10 CFU/ml) 0 hours: 7.23 Log10 CFU/ml
  Bacterial count (Log10 CFU/ml) 2 hours: 8.25 Log10 CFU/ml
  Bacterial count (Log10 CFU/ml) 4 hours: 8.80 Log10 CFU/ml
  Bacterial count (Log10 CFU/ml) 6 hours: 9.38 Log10 CFU/ml
  Bacterial count (Log10 CFU/ml) 24 hours: 9.48 Log10 CFU/ml
[1]
  effect on bacterial counts when used alone: did not reduce the bacterial counts
[2]; agent alone 4 mcg/ml
  Bacterial count (Log10 CFU/ml) 0 hour: 7.77 Log10 CFU/ml
  Bacterial count (Log10 CFU/ml) 2 hours: 8.58 Log10 CFU/ml
  Bacterial count (Log10 CFU/ml) 4 hours: 9.02 Log10 CFU/ml
  Bacterial count (Log10 CFU/ml) 6 hours: 9.2 Log10 CFU/ml
  Bacterial count (Log10 CFU/ml) 8 hours: 9.50 Log10 CFU/ml
[2]
  effect on bacterial counts when used alone: did not reduce the bacterial counts

## O=C(NOC[C@@H]1CCCN1)[C@@H]1CC[C@@H]2CN1C(=O)N2OS(=O)(=O)O [Compound of Formula (I), (2S, 5R)-7-oxo-N-[(2S)-pyrrolidin-2-ylmethoxy]-6-(sulfooxy)-1,6-diazabicyclo[3.2.1]octane-2-carboxamide]
[1]; alone 4 mcg/ml
  Bacterial count (Log10 CFU/ml) 0 hours: 7.23 Log10 CFU/ml
  Bacterial count (Log10 CFU/ml) 2 hours: 7.17 Log10 CFU/ml
  Bacterial count (Log10 CFU/ml) 4 hours: 7.14 Log10 CFU/ml
  Bacterial count (Log10 CFU/ml) 6 hours: 7.11 Log10 CFU/ml
  Bacterial count (Log10 CFU/ml) 24 hours: 7.87 Log10 CFU/ml
[1]
  effect on bacterial counts when used alone: did not reduce the bacterial counts
[2]; agent alone 4 mcg/ml
  Bacterial count (Log10 CFU/ml) 0 hour: 7.77 Log10 CFU/ml
  Bacterial count (Log10 CFU/ml) 2 hours: 8.02 Log10 CFU/ml
  Bacterial count (Log10 CFU/ml) 4 hours: 8.09 Log10 CFU/ml
  Bacterial count (Log10 CFU/ml) 6 hours: 8.07 Log10 CFU/ml
  Bacterial count (Log10 CFU/ml) 8 hours: 8.08 Log10 CFU/ml
[2]
  effect on bacterial counts when used alone: did not reduce the bacterial counts

## Nc1nc(/C(=C/CC(=O)O)C(=O)N[C@@H]2C(=O)N3C(C(=O)O)=CCS[C@H]23)cs1 [Ceftibuten, ceftibuten]
[1]; agent alone 1 mcg/ml
  Bacterial count (Log10 CFU/ml) 0 hours: 7.23 Log10 CFU/ml
  Bacterial count (Log10 CFU/ml) 2 hours: 8.10 Log10 CFU/ml
  Bacterial count (Log10 CFU/ml) 4 hours: 8.7 Log10 CFU/ml
  Bacterial count (Log10 CFU/ml) 6 hours: 9.04 Log10 CFU/ml
  Bacterial count (Log10 CFU/ml) 24 hours: 9.51 Log10 CFU/ml
[1]
  effect on bacterial counts when used alone: did not reduce the bacterial counts
[2]; agent alone 4 mcg/ml
  Bacterial count (Log10 CFU/ml) 0 hour: 7.77 Log10 CFU/ml
  Bacterial count (Log10 CFU/ml) 2 hours: 8.48 Log10 CFU/ml
  Bacterial count (Log10 CFU/ml) 4 hours: 8.70 Log10 CFU/ml
  Bacterial count (Log10 CFU/ml) 6 hours: 9.08 Log10 CFU/ml
  Bacterial count (Log10 CFU/ml) 8 hours: 9.20 Log10 CFU/ml
[2]
  effect on bacterial counts when used alone: did not reduce the bacterial counts

## C=CC1=C(C(=O)O)N2C(=O)[C@@H](NC(=O)/C(=N\OCC(=O)O)c3csc(N)n3)[C@H]2SC1 [Cefixime, cefixime]
[1]; agent alone 1 mcg/ml
  Bacterial count (Log10 CFU/ml) 0 hours: 7.23 Log10 CFU/ml
  Bacterial count (Log10 CFU/ml) 2 hours: 8.65 Log10 CFU/ml
  Bacterial count (Log10 CFU/ml) 4 hours: 8.90 Log10 CFU/ml
  Bacterial count (Log10 CFU/ml) 6 hours: 8.84 Log10 CFU/ml
  Bacterial count (Log10 CFU/ml) 24 hours: 9.06 Log10 CFU/ml
[2]; agent alone 4 mcg/ml
  Bacterial count (Log10 CFU/ml) 0 hour: 7.77 Log10 CFU/ml
  Bacterial count (Log10 CFU/ml) 2 hours: 8.84 Log10 CFU/ml
  Bacterial count (Log10 CFU/ml) 4 hours: 9.20 Log10 CFU/ml
  Bacterial count (Log10 CFU/ml) 6 hours: 8.90 Log10 CFU/ml
  Bacterial count (Log10 CFU/ml) 8 hours: 9.30 Log10 CFU/ml
